Experimental data from US8354412B2, “Beta-3 receptor ligands and their use in therapy” (Universita' Degli Studi di Bari, priority 2006, dated 2013).
Where two headings read alike, the source gives them in different places.

Tests used:
[1] = target: T1, cloned human beta-3 adrenergic receptor (Homo sapiens, UniProt P13945); assay: cAMP accumulation (DELFIA cAMP-Eu assay) in CHO-K1 cells expressing the beta-3 adrenergic receptor; assay type: cell-based; conditions: for Emax: CHO-K1, read-out: Intrinsic Activity (IA %); for EC50: concentration of ligand producing 50% of maximum cAMP accumulation, CHO-K1 human β3, SEM, n ≧ 3; for type of activity on the beta-3 adrenergic receptor (in words): statement in the description
T1 construct: expressed in transfected cells; host or cells: CHO-K1
Description: The determination of the beta-3 adrenergic activity of the compounds of general formula (I) was performed by measuring the levels of cAMP in cell lines of CHO-K1 that express the cloned human beta-3 adrenergic receptor. The accumulation of cAMP is directly correlated to the beta-3 adrenergic activity of the compound and is a predictive measure of the effectiveness of the ligand. The accumulation of cAMP produced by the compounds 1a-1h was determined using the Dissociation Enhanced Lanthanide Fluorescence Immunoassay (DELFIA®, Gabriel, D.; Vernier, M.; Pfeifer, M. J.; Dasen, B.; Tenaillon, L.; Bouhelal, R. Assay and Drug Development Technologies 2003, 1, 291-303), endowed with greater sensitivity and greater accuracy than [α-^32P] radioisotope methods (Hoffmann, C.; Leitz, M. R.; Obendorf-Maass, S.; Lohse, M. J.; Klotz, K.-N. Naunyn-Schmiedeberg's Arch. Pharmacol. 2004, 369, 151-159) or [^3H] (Nannies, K. M.; Briend-Sutren, M. M.; Emorine, L. J.; Delavier-Klutchko, C.; Marullo, S.; Strosberg, A. D. Eur. J. Biochem. 1991, 196, 357-361) of determining the levels of cAMP in cell lines.
(§1) The cell lines of “Chinese hamster ovary” (CHO) that individually express the three subtypes of the human adrenergic receptor (β1, β2 or β3 were grown at 37° C. in an atmosphere composed of 5% of CO2 and 95% of air in a culture medium of Dulbecco's Modified Eagle Medium with a nutrient mixture of F12 (DMEM/F12) supplemented with 10% of bovine fetal Serum, 2 mM of L-glutamine, 100 units/ml of penicillin G and 100 μg/ml of […].
The DELFIA test (Dissociation Enhanced Lanthanide […] Immuno Assay) used for measuring the levels of cAMP was performed according to the protocol supplied by PerkinElmer Life Science. The optimization of the experimental conditions (quantity of cells, times of incubation) is reported below.
A plate of confluence cells was trypsinized and the cells were resuspended in the aforementioned culture medium, sown at a concentration of 50000 cells/200 μl per well in a 96-well plate and cultivated overnight in a CO2 incubator. The culture medium was then aspirated from every well and substituted with 100 μl of culture substrate without serum, preheated at 37° C. The plate was then put back into a CO2 incubator for 30 mins at 37° C. 50 μl of IBMX (3-isobutyl-1-methylxanthine) 1 mM, an inhibitor of the phosphodiesterase was then added to all the wells. In some wells 50 μl of forskolin (compound used for the validation of the DELFIA) was added at different concentrations (100 nM, 500 nM, 1 μM, 10 μM, 50 μM) and in the other wells 50 μl of the compounds to be tested at the same concentrations as the forskolin; the plate was then again incubated for 30 min at 37° C. The cells, at this point, were lysed and incubated at room temperature for 5 min. The plate was used immediately for measuring the levels of cAMP or stored at 4° C. until the measurement was carried out. The fluorescence was determined using a multilabel time-resolved fluorimetry technique performed on a PerkinElmer 1420 Victor®. The excitation and emission wavelengths were 340 nm and 615 nm respectively.

[2] = target: T2, cloned human β1-adrenergic receptor (Homo sapiens, UniProt P08588); assay: [3H]-dihydroalprenolol binding on CHO cell membranes, β1-adrenergic receptor
T2 construct: expressed in transfected cells; host or cells: CHO (membranes)
Description: as §1
(§2) The preconfluence cells were washed with cold PBS, removed from the surface of the plate, collected in cold lysis buffer (10×10^6/ml; 5 mM Tris/HCl, 2 mM EDTA, pH 7.4 at 4° C.) and homogenized with a Brinkmann Polytron (5 for 3×10 secs). The cell membranes obtained were then […] for 10 mins at 4° C. at 1000 g. The supernatant was centrifuged at 10000 g for 30 min. at 4° C. The resultant membrane pellet was resuspended in cold incubation buffer (50 mM Tris/HCl, 10 mM MgCl2, pH 7.4 for the binding experiments on the β1-adrenergic receptors; 50 mM Tris/HCl, pH 7.4 for the binding experiments of on the β2-adrenergic receptors) and its protein content was then determined. The membrane suspension obtained was used immediately or stored at −80° C. until used in the binding experiments.
(§3) The saturation experiments were conducted by incubating the cell membranes (50 μg of protein) in 500 μl of incubation buffer, containing increasing concentrations of [^3H]-dihydroalprenolol (0.1 nM, 0.5 nM, 1 nM, 3 nM, 5 nM, 10 nM). The β1-adrenergic receptors were incubated at 30° C. for 30 min. while the incubation lasted 90 min. in the case of the β2-adrenergic receptor. […] The filters were then washed (3×1 ml) with cold incubation buffer. The residual radioactivity of the filters was measured using a Beckmann LS6500 Multi-purpose scintillator.
(§4) The competitive experiments were conducted by incubation of 50 μg of protein with increasing quantities of the compound under examination (from 10^−9M to 10^−4M) and 4 nM [^3H]-dihydroalprenolol for the β1-adrenergic receptor or 0.4 nM for the β2-adrenergic receptor, in a total volume of 500 μl of incubation buffer.

[3] = target: T3, cloned human β2-adrenergic receptor (Homo sapiens, UniProt P07550); assay: [3H]-dihydroalprenolol binding on CHO cell membranes, β2-adrenergic receptor
T3 construct: expressed in transfected cells; host or cells: CHO (membranes)
Description: as §1, §2, §3, §4

[4] = target: T2, cloned human β1-adrenergic receptor; assay: [3H]-dihydroalprenolol binding on CHO cell membranes, β1-adrenergic receptor; conditions: compound at 10 μM
[5] = target: T3, cloned human β2-adrenergic receptor; assay: [3H]-dihydroalprenolol binding on CHO cell membranes, β2-adrenergic receptor; conditions: compound at 10 μM
[6] = maximum cAMP response, isoproterenol 10^−4 M = 100%, absence of agonists = 0%
[7] = human β1, Cheng-Prusoff, 4 nM [3H]-dihydroalprenolol, read-out: Binding Ki, β1
[8] = human β2, Cheng-Prusoff, 0.4 nM [3H]-dihydroalprenolol, read-out: Binding Ki, β2

T1 sequence (P13945 whole entry): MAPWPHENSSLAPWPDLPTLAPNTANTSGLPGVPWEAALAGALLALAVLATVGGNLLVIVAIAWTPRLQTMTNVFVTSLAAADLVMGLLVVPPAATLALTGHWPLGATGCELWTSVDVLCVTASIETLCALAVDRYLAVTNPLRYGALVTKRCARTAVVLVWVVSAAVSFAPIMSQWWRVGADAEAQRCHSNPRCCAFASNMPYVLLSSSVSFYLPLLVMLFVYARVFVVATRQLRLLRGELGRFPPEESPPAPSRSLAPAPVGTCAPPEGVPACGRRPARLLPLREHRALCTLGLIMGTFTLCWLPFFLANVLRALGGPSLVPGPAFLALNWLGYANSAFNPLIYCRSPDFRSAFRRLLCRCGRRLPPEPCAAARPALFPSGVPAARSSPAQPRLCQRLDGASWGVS
T2 sequence (P08588 whole entry): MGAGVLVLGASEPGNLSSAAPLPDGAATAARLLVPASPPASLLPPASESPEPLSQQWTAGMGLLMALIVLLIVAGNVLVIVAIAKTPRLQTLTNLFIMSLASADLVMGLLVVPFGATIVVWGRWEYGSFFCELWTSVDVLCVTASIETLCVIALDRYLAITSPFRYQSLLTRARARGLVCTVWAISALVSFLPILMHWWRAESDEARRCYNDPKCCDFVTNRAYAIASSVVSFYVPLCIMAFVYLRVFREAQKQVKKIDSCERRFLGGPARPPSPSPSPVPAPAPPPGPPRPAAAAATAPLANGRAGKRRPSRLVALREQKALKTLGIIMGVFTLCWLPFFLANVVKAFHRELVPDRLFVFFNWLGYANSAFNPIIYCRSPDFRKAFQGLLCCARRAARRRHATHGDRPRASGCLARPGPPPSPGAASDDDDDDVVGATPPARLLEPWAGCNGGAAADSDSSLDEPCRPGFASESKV
T3 sequence (P07550 whole entry): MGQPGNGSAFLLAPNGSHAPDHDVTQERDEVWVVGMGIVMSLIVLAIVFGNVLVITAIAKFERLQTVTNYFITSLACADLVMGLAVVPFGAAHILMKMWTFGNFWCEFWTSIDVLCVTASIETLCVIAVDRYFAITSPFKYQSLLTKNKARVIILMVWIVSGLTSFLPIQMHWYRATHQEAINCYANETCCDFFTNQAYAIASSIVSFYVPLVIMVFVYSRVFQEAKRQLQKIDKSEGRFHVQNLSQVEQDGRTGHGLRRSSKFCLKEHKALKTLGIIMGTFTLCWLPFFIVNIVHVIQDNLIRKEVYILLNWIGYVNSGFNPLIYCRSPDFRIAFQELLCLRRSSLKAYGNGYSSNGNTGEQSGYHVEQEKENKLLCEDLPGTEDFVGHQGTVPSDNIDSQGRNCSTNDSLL

| Structure (SMILES) | Emax [1, 6] [%] | EC50 [1] [nM] | type of activity on the beta-3 adrenergic receptor (in words) [1] | Ki [2, 7] [nM] | Ki [3, 8] [nM] | Intrinsic Activity (IA %) [1, 6] | % activation at 10 μM, β1 [4] [%] | % activation at 10 μM, β2 [5] [%] | Ki [2] [nM] | Ki [3] [nM] |
| --- | --- | --- | --- | --- | --- | --- | --- | --- | --- | --- |
| C[C@H](Oc1ccc(CCNC[C@@H](O)c2ccccc2)cc1)C(=O)O [Compound 1e, (2S)-(+)-2-{4-[2-((2S)-2-phenyl-2-hydroxyethylamino)ethyl]phenoxy}propionic acid] | -64 | 192 ± 19 | inverse agonist activity | > 7000 | > 5000 | – | – | – | – | – |
| COc1ccc(S(=O)(=O)N2CCN(C[C@H](O)COc3ccccc3)CC2)cc1 [Compound 2a, (S)-2-hydroxy-3-[4-(4-methoxyphenylsulfonyl)piperazin-1-yl]-1-phenoxy propane] | 58 | 5 ± 1.9 | – | > 7000 | > 5000 | – | – | – | – | – |
| COc1ccc(S(=O)(=O)N2CCN(C[C@H](O)COc3ccc(O)cc3)CC2)cc1 [Compound 2b, (S)-2-hydroxy-1-(4-hydroxyphenoxy)-3-[4-(4-methoxyphenylsulfonyl)piperazin-1-yl]propane] | 67 | 1.97 ± 0.92 | – | > 7000 | > 5000 | – | – | – | – | – |
| COc1ccc(S(=O)(=O)N2CCN(C[C@H](O)COc3cccc(N)c3)CC2)cc1 [Compound 2e, (S)-1-(3-aminophenoxy)-2-hydroxy-3-[4-(4-methoxyphenylsulfonyl)piperazin-1-yl]propane] | – | – | – | > 7000 | > 5000 | – | – | – | – | – |
| COc1ccc(S(=O)(=O)N2CCN(C[C@H](O)COc3ccc(OCc4ccccc4)cc3)CC2)cc1 [Compound 2c, (S)-1-(4-benzyloxyphenoxy)-2-hydroxy-3-[4-(4-methoxybenzenesulfonyl)piperazin-1-yl]propane] | 48 | 8.3 ± 1.94 | – | > 7000 | > 5000 | – | – | – | – | – |
| CC(C)(Oc1ccc(CCNC[C@@H](O)c2ccccc2)cc1)C(=O)O [Compound 1c, (2S)-(+)-2-{4-[2-(2-phenyl-2-hydroxyethylamino)ethyl]phenoxy}-2-methylpropionic acid] | 76 | 3.4 ± 0.8 | – | > 7000 | > 5000 | – | – | – | – | – |
| CC(C)(Oc1ccc(CCNCC(O)c2ccccc2)cc1)C(=O)O (racemic) [Compound 1a, (±)-2-{4-[2-(2-phenyl-2-hydroxyethylamino)ethyl]phenoxy}-2-methylpropionic acid] | 68 | 4.9 ± 0.25 | behaves as an agonist of the beta-3 adrenergic receptor independently of the configuration of the chiral atom | > 7000 | > 5000 | – | – | – | – | – |
| COc1ccc(S(=O)(=O)N2CCN(C[C@H](O)COc3cccc4[nH]c5ccccc5c34)CC2)cc1 [Compound 2j, (S)-1-(Carbazol-4-yloxy)-2-hydroxy-3-[4-(4-methoxybenzenesulfonyl)piperazin-1-yl)propane] | 38 | 3.8 ± 1.8 | – | > 7000 | 177 | – | – | – | – | – |
| COc1ccc(S(=O)(=O)N2CCN(C[C@H](O)COc3cccc([N+](=O)[O-])c3)CC2)cc1 [Compound 2d, (S)-2-hydroxy-3-[4-(4-methoxyphenylsulfonyl)piperazin-1-yl]-1-(3-nitrophenoxy)-propane] | 84 | 4.1 ± 1.93 | – | > 7000 | > 5000 | – | – | – | – | – |
| C[C@@H](Oc1ccc(CCN[C@H](C)[C@@H](O)c2ccccc2)cc1)C(=O)O [Compound 1j] | – | 211 ± 10 | – | > 7000 | > 5000 | (39) % | 20 | 21 | – | – |
| C[C@@H](Oc1ccc(CCNC[C@H](O)c2ccccc2)cc1)C(=O)O [Compound 1h, (2R)-(−)-2-{4-[2-((2R)-2-phenyl-2-hydroxyethylamino)ethyl]phenoxy}propionic acid] | 35 | 107 ± 37 | – | > 7000 | > 5000 | – | – | – | – | – |
| C[C@@H](Oc1ccc(CCNC[C@@H](O)c2ccccc2)cc1)C(=O)O [Compound 1g, (2R)-(+)-2-{4-[2-((2S)-2-phenyl-2-hydroxyethylamino)ethyl]phenoxy}propionic acid] | -73 | 176 ± 20 | inverse agonist activity | > 7000 | > 5000 | – | – | – | – | – |
| CC(C)(Oc1ccc(CCNC[C@H](O)c2ccccc2)cc1)C(=O)O [Compound 1b, (2R)-(−)-2-{4-[2-(2-phenyl-2-hydroxyethylamino)ethyl]phenoxy}-2-methylpropionic acid] | 72 | 3.9 ± 2.1 | – | > 7000 | > 5000 | – | – | – | – | – |
| COc1ccc(S(=O)(=O)N2CCN(C[C@H](O)COc3cccc4ccccc34)CC2)cc1 [Compound 2i, (S)-2-hydroxy-1-(napht-1-yloxy)-3-[4-(4-methoxyphenylsulfonyl)piperazin-1-yl)propane] | 43 | 5.24 ± 1.08 | – | > 7000 | > 2000 | – | – | – | – | – |
| CC(Oc1ccc(CCNCC(O)c2ccccc2)cc1)C(=O)O (racemic) [Compound 1d, (±)-2-{4-[2-(2-phenyl-2-hydroxyethylamino)ethyl]phenoxy}propionic acid] | 65 | 3.8 ± 0.7 | – | > 7000 | > 5000 | – | – | – | – | – |
| C[C@H](Oc1ccc(CCNC[C@H](O)c2ccccc2)cc1)C(=O)O [Compound 1f, (2S)-(−)-2-{4-[2-((2R)-2-phenyl-2-hydroxyethylamino)ethyl]phenoxy}propionic acid] | 50 | 2.2 ± 0.7 | particularly active compound as agonist | > 7000 | > 5000 | – | – | – | – | – |
| C[C@H](NCCc1ccc(O[C@H](C)C(=O)O)cc1)[C@@H](O)c1ccccc1 [Compound 1k, (R)-2-[4-[2-((1S,2S)-1-hydroxy-1-phenylpropan-2-yl-amino)ethyl]phenoxy]propionic acid] | 53 | 1.97 ± 0.9 | – | – | – | – | – | – | > 7000 | > 5000 |
